The structures appear in SMILES notation. pIC50: −log10 of the molar value. Read-outs that look alike come from different tables or passages of the source. Bounds are passed on as bounds.

As usually defined, the pIC50 is the IC50 on a negative log10 scale, so that one unit is a factor of ten. Read a low pIC50 as a high IC50. One may read the IC90 as the point of the concentration-response curve where the effect stands at 90%.

Holding throughout (format): cell-based
The subject of assay [1] is HAP1 MTAP-deleted cell line. The assay is described as follows: Viability assay (CellTiter-Glo), HAP1 MTAP-deleted. The note with it: Homo sapiens, 168 h, HAP1 MTAP-deleted cells, 7 days. The method in brief: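 HAP1 MTAP-deleted and MTAP-intact cells seeded, then dosed next day (n=3, 0.2% DMSO) and grown 7 days. Viability by CellTiter-Glo luminescence, expressed as % of DMSO control per cell line.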

Assay [2] relates to SDMA (PRMT5 activity) in HAP1 MTAP-intact cell line. The experiment in a line: SDMA in-cell western assay, HAP1 MTAP-intact.
For assay [3], the system named is SDMA (PRMT5 activity) in HAP1 MTAP-deleted cell line. The assay is described as follows: SDMA in-cell western assay, HAP1 MTAP-deleted.
Setting [4] is: Homo sapiens, HAP1, 24 h, SDMA in-cell western, HAP1 MTAP-intact cells, 24 hours compound incubation.
[5] abbreviates: Homo sapiens, SDMA in-cell western, HAP1 MTAP-deleted cells, 24 hours compound incubation.
[6] abbreviates: ratio of SDMA IC50 in HAP1 MTAP-intact to HAP1 MTAP-deleted cell line.

Regarding `CCc1cc(NC(=O)C(=O)N2C[C@@H](C)CC[C@@H]2c2ccc3sc(C[C@H]4CCN(C)C[C@@H]4C)nc3c2)cnc1N` (racemic) [Compound 18, N-(6-amino-5-ethylpyridin-3-yl)-2-((2R,5S)-2-(2-((1,3-dimethylpiperidin-4-yl)methyl)benzo[d]thiazol-5-yl)-5-methylpiperidin-1-yl)-2-oxoacetamide], the negative-log IC50 (pIC50) in assay [1] is over 7.00; in assay [2] (setting [4]), 7.30 to 8.30; in assay [3] (setting [5]) it was over 8.30. This compound also yielded an IC90 in assay [3] (setting [5]) of under 75 nM. For the same compound, in assay [3] (setting [6]), the “Hap1 MTAP intact/deleted ratio” value is reported as “A (“A” indicates an IC50 ratio greater than or equal to 30 fold)”.

On to `COc1ncc(NC(=O)C(=O)N2C[C@@H](C)CC[C@@H]2c2ccc3sc(C4CCN(C)C4(C)C)nc3c2)cc1C(N)=O` (mixture of isomers) [Compound 87, 2-methoxy-5-(2-((2R,5S)-5-methyl-2-(2-(rac-(S)-1,2,2-trimethylpyrrolidin-3-yl)benzo[d]thiazol-5-yl)piperidin-1-yl)-2-oxoacetamido)nicotinamide], for which the negative logarithm of the IC50 (pIC50) is over 7.00 in assay [1], under 7.30 in assay [2] (setting [4]) and over 8.30 in assay [3] (setting [5]). In assay [3] (setting [5]), this compound returned a 90% effect concentration (IC90) of under 75 nM. In addition, in assay [3] (setting [6]), the “Hap1 MTAP intact/deleted ratio” value is recorded as “A (“A” indicates an IC50 ratio greater than or equal to 30 fold)”.

Regarding `COc1ncc(NC(=O)C(=O)N2C[C@@H](C)CC[C@@H]2c2ccc3sc(CC(C)N4CCCC4)nc3c2)cc1C(N)=O` (mixture of isomers) [Compound 57, 2-methoxy-5-(2-((2R,5S)-5-methyl-2-(2-(2-(pyrrolidin-1-yl)propyl)benzo[d]thiazol-5-yl)piperidin-1-yl)-2-oxoacetamido)nicotinamide], the results for the pIC50 in assay [1], in assay [2] (setting [4]) and in assay [3] (setting [5]) were over 7.00, under 7.30 and over 8.30, respectively. Besides, in assay [3] (setting [5]), the IC90 is under 75 nM. Moreover, the “Hap1 MTAP intact/deleted ratio” value in assay [3] (setting [6]) is recorded as “A (“A” indicates an IC50 ratio greater than or equal to 30 fold)”.

Consider `C[C@H]1CC[C@H](c2ccc3sc(C4CCN(C)C(C)(C)C4)nc3c2)N(C(=O)C(=O)Nc2cnc(N)c(C3COC3)c2)C1` (single isomer, unassigned) [Compound 34], for which the negative logarithm of the IC50 (pIC50) in assay [1] was over 7.00; in assay [2] (setting [4]), 7.30 to 8.30; in assay [3] (setting [5]), over 8.30. The IC90 in assay [3] (setting [5]) is under 75 nM. Moreover, in assay [3] (setting [6]), the “Hap1 MTAP intact/deleted ratio” value is reported as “C (“C” indicates an IC50 ratio of less than 15 fold)”.

`CCc1cc(NC(=O)C(=O)N2C[C@@H](C)CC[C@@H]2c2ccc3sc(C4CC(C5CN(C)C5)C4)nc3c2)cnc1N` (stereo partly drawn) [Compound 100, N-(6-amino-5-ethylpyridin-3-yl)-2-((2R,5S)-5-methyl-2-(2-(3-(1-methylazetidin-3-yl)cyclobutyl)benzo[d]thiazol-5-yl)piperidin-1-yl)-2-oxoacetamide]: the negative-log IC50 (pIC50) was over 7.00 in assay [1], 7.30 to 8.30 in assay [2] (setting [4]) and over 8.30 in assay [3] (setting [5]). Also, in assay [3] (setting [5]), the IC90 is under 75 nM. Besides, in assay [3] (setting [6]), the “Hap1 MTAP intact/deleted ratio” value is recorded as “B (“B” indicates an IC50 ratio greater than or equal to 15 fold but lower than 30 fold)”.

`C[C@H]1CC[C@H](c2ccc3sc(C4CCN(C)CC4)nc3c2)N(C(=O)C(=O)Nc2cnc(F)c(C(N)=O)c2)C1` [Compound 8, 2-fluoro-5-(2-((2R,5S)-5-methyl-2-(2-(1-methylpiperidin-4-yl)benzo[d]thiazol-5-yl)piperidin-1-yl)-2-oxoacetamido)nicotinamide]: the values for the pIC50 in assay [1], in assay [2] (setting [4]) and in assay [3] (setting [5]) were over 7.00, under 7.30 and over 8.30, respectively. In addition, in assay [3] (setting [5]), the 90% effect concentration (IC90) was under 75 nM. Also, the “Hap1 MTAP intact/deleted ratio” value in assay [3] (setting [6]) was “B (“B” indicates an IC50 ratio greater than or equal to 15 fold but lower than 30 fold)”.

For `CCc1cc(NC(=O)C(=O)N2C[C@@H](C)CC[C@@H]2c2ccc3cn([C@@H]4CCN(C)C[C@@H]4C)nc3c2)cnc1N` [Compound 127], the negative-log IC50 (pIC50) is over 7.00 in assay [1], 7.30 to 8.30 in assay [2] (setting [4]) and over 8.30 in assay [3] (setting [5]). The same compound displayed an IC90 in assay [3] (setting [5]) of under 75 nM. Besides, the “Hap1 MTAP intact/deleted ratio” value in assay [3] (setting [6]) was “C (“C” indicates an IC50 ratio of less than 15 fold)”.

For `CCc1cc(NC(=O)C(=O)N2C[C@@H](C)CC[C@@H]2c2ccc3cn(C4CCN(C)C(C)(C)C4)nc3c2)cnc1N` (stereo partly drawn) [Compound 109, N-(6-amino-5-ethyl-3-pyridyl)-2-oxo-2-[(2R,5S)-5-methyl-2-[2-(1,2,2-trimethyl-4-piperidyl)indazol-6-yl]-1-piperidyl]acetamide], the values for the pIC50 in assay [1], in assay [2] (setting [4]) and in assay [3] (setting [5]) were over 7.00, 7.30 to 8.30 and over 8.30, respectively. In addition, the concentration for an effect of 90% (IC90) in assay [3] (setting [5]) was under 75 nM. Further, the “Hap1 MTAP intact/deleted ratio” value in assay [3] (setting [6]) is “B (“B” indicates an IC50 ratio greater than or equal to 15 fold but lower than 30 fold)”.

Turning to `CCc1cc(NC(=O)C(=O)N2C[C@@H](C)CC[C@@H]2c2ccc3sc([C@@H]4C[C@@H](C)N(C)C4)nc3c2)cnc1N` (mixture of isomers) [Compound 4, N-(6-amino-5-ethyl-3-pyridyl)-2-oxo-2-[(2R,5S)-5-methyl-2-[2-[rac-(3R,5R)-1,5-dimethylpyrrolidin-3-yl]-1,3-benzothiazol-5-yl]-1-piperidyl]acetamide], the pIC50 in assay [1] is over 7.00; in assay [2] (setting [4]), under 7.30; in assay [3] (setting [5]), over 8.30. Besides, the concentration for an effect of 90% (IC90) in assay [3] (setting [5]) was under 75 nM. Also, in assay [3] (setting [6]), the “Hap1 MTAP intact/deleted ratio” value was “A (“A” indicates an IC50 ratio greater than or equal to 30 fold)”.

Take `CCc1cc(NC(=O)C(=O)N2C[C@@H](C)CC[C@@H]2c2ccc3sc([C@H]4CN5CC[C@@H]4C5)nc3c2)cnc1N` (racemic) [Compound 21, 2-((2R,5S)-2-(2-(1-azabicyclo[2.2.1]heptan-3-yl)benzo[d]thiazol-5-yl)-5-methylpiperidin-1-yl)-N-(6-amino-5-ethylpyridin-3-yl)-2-oxoacetamide]: the results for the negative-log IC50 (pIC50) in assay [1], in assay [2] (setting [4]) and in assay [3] (setting [5]) were over 7.00, 7.30 to 8.30 and over 8.30, respectively. In addition, the IC90 in assay [3] (setting [5]) was under 75 nM. Moreover, the “Hap1 MTAP intact/deleted ratio” value in assay [3] (setting [6]) is “C (“C” indicates an IC50 ratio of less than 15 fold)”.

`CCc1cc(NC(=O)C(=O)N2C[C@@H](C)CC[C@@H]2c2ccc3nn([C@@H]4CCN(C)C(C)(C)C4)cc3c2)cnc1N` [Compound 108]: the negative logarithm of the IC50 (pIC50) in assay [1] was over 7.00; in assay [2] (setting [4]), 7.30 to 8.30; in assay [3] (setting [5]), over 8.30. The IC90 in assay [3] (setting [5]) was under 75 nM. Further, the “Hap1 MTAP intact/deleted ratio” value in assay [3] (setting [6]) is reported as “B (“B” indicates an IC50 ratio greater than or equal to 15 fold but lower than 30 fold)”.

For the compound `COc1ncc(NC(=O)C(=O)N2C[C@@H](C)CC[C@@H]2c2ccc3sc([C@@H]4CN(C)C(C)(C)C4)nc3c2)cc1C(N)=O` (single isomer, unassigned) [Compound 30], the values for the negative-log IC50 (pIC50) in assay [1], in assay [2] (setting [4]) and in assay [3] (setting [5]) were over 7.00, under 7.30 and over 8.30, respectively. In assay [3] (setting [5]), this compound returned a concentration for an effect of 90% (IC90) of under 75 nM. For the same compound, in assay [3] (setting [6]), the “Hap1 MTAP intact/deleted ratio” value is reported as “B (“B” indicates an IC50 ratio greater than or equal to 15 fold but lower than 30 fold)”.

As for `Cc1cc2cc(C(=O)N3C[C@@H](C)CC[C@@H]3c3ccc4sc(C5CCN(C)CC5)nc4c3)ccc2nc1N` [Compound 59, (2-amino-3-methylquinolin-6-yl)((2R,5S)-5-methyl-2-(2-(1-methylpiperidin-4-yl)benzo[d]thiazol-5-yl)piperidin-1-yl)methanone], the pIC50 in assay [1] was over 7.00; in assay [2], under 7.30; in assay [3], over 8.30. Further, the “Hap1 MTAP intact/deleted ratio” value in assay [3] is given as “A (key: “A” indicates an IC50 ratio greater than or equal to 30 fold; “B” indicates an IC50 ratio greater than or equal to 15 fold but lower than 30 fold; “C” indicates an IC50 ratio of less than 15 fold)”. The same compound showed an IC90 in assay [3] of under 75 nM.

Turning to `CCc1cc(NC(=O)C(=O)N2C[C@@H](C)CC[C@@H]2c2ccc3sc(C4=C(C)CN(C)CC4)nc3c2)cnc1N` [Compound 84, N-(6-amino-5-ethylpyridin-3-yl)-2-((2R,5S)-2-(2-(1,5-dimethyl-1,2,3,6-tetrahydropyridin-4-yl)benzo[d]thiazol-5-yl)-5-methylpiperidin-1-yl)-2-oxoacetamide], the pIC50 was over 7.00 in assay [1]; under 7.30 in assay [2] (Homo sapiens, SDMA in-cell western, HAP1 MTAP-intact cells, 24 hours compound incubation); over 8.30 in assay [3] (setting [5]). Moreover, the IC90 in assay [3] (setting [5]) was under 75 nM. The “Hap1 MTAP intact/deleted ratio” value in assay [3] (setting [6]) is given as “B (“B” indicates an IC50 ratio greater than or equal to 15 fold but lower than 30 fold)”.

`COc1ncc(NC(=O)C(=O)N2C[C@@H](C)CC[C@@H]2c2ccc3sc([C@H]4CN(C)CCO4)nc3c2)cc1C(N)=O` [Compound 124]: the figures for the pIC50 in assay [1], in assay [2] (setting [4]) and in assay [3] (setting [5]) were 6.00 to 7.00, under 7.30 and 7.30 to 8.30, respectively. The compound also displayed an IC90 in assay [3] (setting [5]) of over 125 nM. In addition, the “Hap1 MTAP intact/deleted ratio” value in assay [3] (setting [6]) is given as “A (“A” indicates an IC50 ratio greater than or equal to 30 fold)”.

In the case of `COc1ncc(NC(=O)C(=O)N2C[C@@H](C)CC[C@@H]2c2ccc3cn([C@@H]4CCN(C)C4)nc3c2)cc1C(N)=O` [Compound 102, 2-methoxy-5-(2-((2R,5S)-5-methyl-2-(2-((R)-1-methylpyrrolidin-3-yl)-2H-indazol-6-yl)piperidin-1-yl)-2-oxoacetamido)nicotinamide], the negative-log IC50 (pIC50) is over 7.00 in assay [1], under 7.30 in assay [2] (setting [4]) and over 8.30 in assay [3] (setting [5]). The compound also showed an IC90 in assay [3] (setting [5]) of under 75 nM. For the same compound, in assay [3] (setting [6]), the “Hap1 MTAP intact/deleted ratio” value is recorded as “A (“A” indicates an IC50 ratio greater than or equal to 30 fold)”.

With `CCc1cc(NC(=O)C(=O)N2C[C@@H](C)CC[C@@H]2c2ccc3sc([C@@H](C)CN4CCCC4)nc3c2)cnc1N` [Compound 47], the pIC50 was over 7.00 in assay [1], under 7.30 in assay [2] (setting [4]) and over 8.30 in assay [3] (setting [5]). The IC90 in assay [3] (setting [5]) is under 75 nM. Further, in assay [3] (setting [6]), the “Hap1 MTAP intact/deleted ratio” value is “A (“A” indicates an IC50 ratio greater than or equal to 30 fold)”.

Source of the values: patent US20250171432A1, “COMPOUNDS AND METHODS OF USE” (Tango Therapeutics, Inc., priority 2022, published 2025).
